Assay results: US4311698A, “Aminoacid derivatives of cephalosporin compounds” (priority 1980, dated 1982)
Converted amounts (≈) assume the structure as drawn.

How the values were obtained:
Format in all cases: cell-based
[1] = tested on: E. Coli. Vogel; test: In vitro minimal inhibitory concentration, E. Coli. Vogel; details: Escherichia coli
[2] = tested on: E. Coli. Brig; test: In vitro minimal inhibitory concentration, E. Coli. Brig; details: Escherichia coli
[3] = tested on: Staph UC76; test: In vitro minimal inhibitory concentration, Staph UC76
[4] = tested on: Klebs. Pneum. MGH 2; test: In vitro minimal inhibitory concentration, Klebs. Pneum. MGH 2
[5] = tested on: Pseudomonas BRK 12-4-4; test: In vitro minimal inhibitory concentration, Pseudomonas BRK 12-4-4; details: BRK1244
[6] = tested on: Entero Cloac. IM 11; test: In vitro minimal inhibitory concentration, Entero Cloac. IM 11
[7] = tested on: Serr. Mar. IMM 16; test: In vitro minimal inhibitory concentration, Serr. Mar. IMM 16
[8] = tested on: Pseudomonas UI 18; test: In vitro minimal inhibitory concentration, Pseudomonas UI 18; details: UI18
[9] = tested on: Pseudomonas #28; test: In vitro minimal inhibitory concentration, Pseudomonas #28; details: Pseudomonas #28; in vitro; read-out: Minimal Inhibitory Concentration
[10] = tested on: Prot Vulg.; test: In vitro minimal inhibitory concentration, Prot Vulg.
[11] = tested on: Staph S 18713; test: In vitro minimal inhibitory concentration, Staph S 18713
[12] = tested on: Strep. fec. MGH 2; test: In vitro minimal inhibitory concentration, Strep. fec. MGH 2

| SMILES | MIC [1] | MIC [2] | MIC [3] | MIC [4] | MIC [5] | MIC [6] | MIC [7] | MIC [8] | MIC [9] | MIC [10] | MIC [11] | MIC [12] |
| --- | --- | --- | --- | --- | --- | --- | --- | --- | --- | --- | --- | --- |
| O=C(O)Cn1nnnc1SCC1=C(C(=O)O)N2C(=O)C(NC(=O)[C@H](NC(=O)c3ccc(-c4ccc(NC(=O)[C@@H]5CCC(=O)N5)cc4)[nH]c3=O)c3ccccc3)C2SC1 (stereo partly drawn) [Example 16, N-[6-[4-(L-Pyroglutamylamino)phenyl]-1,2-dihydro-2-oxonicotinyl]-7-[D-2-amino-2-phenylacetamido]-3-[[(1-carboxymethyl-1H-tetrazol-5-yl)thio]methyl]-3-cephem-4-carboxylic acid] | 0.4 µg/mL (≈ 0.483 µM) | 3.1 µg/mL (≈ 3.74 µM) | 3.1 µg/mL (≈ 3.74 µM) | 0.8 µg/mL (≈ 0.965 µM) | 6.3 µg/mL (≈ 7.6 µM) | 3.1 µg/mL (≈ 3.74 µM) | 6.3 µg/mL (≈ 7.6 µM) | 6.3 µg/mL (≈ 7.6 µM) | 3.1 µg/mL (≈ 3.74 µM) | 0.4 µg/mL (≈ 0.483 µM) | 12.5 µg/mL (≈ 15.1 µM) | 50 µg/mL (≈ 60.3 µM) |
| CC(=O)N[C@H](C)C(=O)Nc1ccc(-c2ccc(C(=O)N[C@@H](C(=O)NC3C(=O)N4C(C(=O)O)=C(COC(C)=O)CSC34)c3ccc(O)cc3)c(=O)[nH]2)cc1 (stereo partly drawn) [Example 8, N-[6-[4-(N-Acetyl-D-alanylamino)phenyl]-1,2-dihydro-2-oxonicotinyl]-7-[D-2-amino-2-(4-hydroxyphenyl)acetamido]-3-acetoxymethyl-3-cephem-4-carboxylic acid] | 3.1 µg/mL (≈ 4.15 µM) | 12.5 µg/mL (≈ 16.7 µM) | 1.6 µg/mL (≈ 2.14 µM) | 6.3 µg/mL (≈ 8.44 µM) | 6.3 µg/mL (≈ 8.44 µM) | 12.5 µg/mL (≈ 16.7 µM) | 50 µg/mL (≈ 67 µM) | 3.1 µg/mL (≈ 4.15 µM) | 1.6 µg/mL (≈ 2.14 µM) | 12.5 µg/mL (≈ 16.7 µM) | 6.3 µg/mL (≈ 8.44 µM) | 12.5 µg/mL (≈ 16.7 µM) |
| CC(=O)N[C@H](C)C(=O)Nc1ccc(-c2ccc(C(=O)N[C@@H](C(=O)NC3C(=O)N4C(C(=O)O)=C(CSc5nnnn5CCC(=O)O)CSC34)c3ccccc3)c(=O)[nH]2)cc1 (some centres unmarked) [Example 41] | 0.8 µg/mL (≈ 0.947 µM) | 6.3 µg/mL (≈ 7.46 µM) | 3.1 µg/mL (≈ 3.67 µM) | 1.6 µg/mL (≈ 1.89 µM) | 12.5 µg/mL (≈ 14.8 µM) | 6.3 µg/mL (≈ 7.46 µM) | 12.5 µg/mL (≈ 14.8 µM) | 12.5 µg/mL (≈ 14.8 µM) | 6.3 µg/mL (≈ 7.46 µM) | 3.1 µg/mL (≈ 3.67 µM) | 12.5 µg/mL (≈ 14.8 µM) | 50 µg/mL (≈ 59.2 µM) |
| CC(=O)N[C@@H](CCC(N)=O)C(=O)Nc1ccc(-c2ccc(C(=O)N[C@@H](C(=O)NC3C(=O)N4C(C(=O)O)=C(CSc5nnnn5C)CSC34)c3ccccc3)c(=O)[nH]2)cc1 (stereo partly drawn) [Example 9, N-[6-[4-(N-Acetyl-L-glutaminylamino)phenyl]-1,2-dihydro-2-oxonicotinyl]-7-(D-2-amino-2-phenylacetamido]-3-[[(1-methyl-1H-tetrazol-5-yl)thio]methyl]-3-cephem-4-carboxylic acid] | 0.4 µg/mL (≈ 0.474 µM) | 3.1 µg/mL (≈ 3.67 µM) | 0.4 µg/mL (≈ 0.474 µM) | 0.8 µg/mL (≈ 0.948 µM) | 6.3 µg/mL (≈ 7.47 µM) | 1.6 µg/mL (≈ 1.9 µM) | 12.5 µg/mL (≈ 14.8 µM) | 6.3 µg/mL (≈ 7.47 µM) | 3.1 µg/mL (≈ 3.67 µM) | 6.3 µg/mL (≈ 7.47 µM) | 3.1 µg/mL (≈ 3.67 µM) | 25 µg/mL (≈ 29.6 µM) |
| CC(=O)N[C@@H](CCC(N)=O)C(=O)Nc1ccc(-c2ccc(C(=O)N[C@@H](C(=O)NC3C(=O)N4C(C(=O)O)=C(CSc5nnnn5CC(=O)O)CSC34)c3ccccc3)c(=O)[nH]2)cc1 (stereo partly drawn) [Example 21, N-[6-[4-(N-Acetyl-L-glutaminylamino)phenyl]-1,2-dihydro-2-oxonicotinyl]-7-[D-2-amino-2-phenylacetamido]-3-[[(1-carboxymethyl-1H-tetrazol-5-yl)thio]methyl]-3-cephem-4-carboxylic acid] | 3.1 µg/mL (≈ 3.49 µM) | 3.1 µg/mL (≈ 3.49 µM) | 6.3 µg/mL (≈ 7.1 µM) | 3.1 µg/mL (≈ 3.49 µM) | 12.5 µg/mL (≈ 14.1 µM) | 6.3 µg/mL (≈ 7.1 µM) | 12.5 µg/mL (≈ 14.1 µM) | 6.3 µg/mL (≈ 7.1 µM) | 6.3 µg/mL (≈ 7.1 µM) | 3.1 µg/mL (≈ 3.49 µM) | – | 50 µg/mL (≈ 56.3 µM) |
| CC(=O)NC(C)(C)C(=O)Nc1ccc(-c2ccc(C(=O)N[C@@H](C(=O)NC3C(=O)N4C(C(=O)O)=C(COC(C)=O)CSC34)c3ccccc3)c(=O)[nH]2)cc1 (stereo partly drawn) [Example 11, N-[6-[4-(N-Acetyl-alpha-aminoisobutyrylamino)phenyl]-1,2-dihydro-2-oxonicotinyl]-7-[D-2-amino-2-phenylacetamido]-3-acetoxymethyl-3-cephem-4-carboxylicacid] | 3.1 µg/mL (≈ 4.16 µM) | 12.5 µg/mL (≈ 16.8 µM) | 0.4 µg/mL (≈ 0.537 µM) | 12.5 µg/mL (≈ 16.8 µM) | 6.3 µg/mL (≈ 8.46 µM) | 12.5 µg/mL (≈ 16.8 µM) | 50 µg/mL (≈ 67.1 µM) | 6.3 µg/mL (≈ 8.46 µM) | 3.1 µg/mL (≈ 4.16 µM) | 12.5 µg/mL (≈ 16.8 µM) | 3.1 µg/mL (≈ 4.16 µM) | 25 µg/mL (≈ 33.6 µM) |
